# Experimental data from the supplement of paper PMC11208160.
# Test: recombinant barcode read abundance after kanamycin selection (control-corrected) (log10(CPM+1)); higher = more efficient recombination; sequences stand for … in AGTGCAGAGAAAATCGGCCAGTTTTCTCTGCCTGCAGTCCGCATGCCGT…AGATTTATGCAGCGGACTGCCTTTCTCCCAAAGTGATAAACCGGACAGTATCATGGACCGGTTTTCCCGGTAATCCGTATTTGCAAGGTTGGTTTCACT; site = the 11-nt target
# Summary of the method: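 Oligos holding a promoter, target, barcode and the J23119-driven first 104 bases of the bridge RNA were Gibson-cloned into a vector that supplied the other 73 bp plus a T7-inducible recombinase. This library was co-electroporated with a donor plasmid into E. coli. Two replicates went on chloramphenicol/ampicillin LB agar (control) and two on chloramphenicol/ampicillin/kanamycin with 0.1 mM IPTG. Recombination efficiency is read from averaged, control-corrected barcode counts per million at recombinant junctions, reported as log10(CPM+1).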
# 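Also: IS621 recombinase and bridge RNA in Escherichia coli cells.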
row,Sequence,recombinant barcode read abundance (log10)
1,CAAGATTCTTGGGTTCTAACCTGTTGCCT (site CAAGATTCTAG),1.69
2,CAAGATTCTTGGGTTCTAACCTGTTGCCT (site CCAGATTCTAG),0.71
3,CAAGATTCTTGGGTTCTAACCTGTTGCCT (site CGAGATTCTAG),0
4,CAAGATTCTTGGGTTCTAACCTGTTGCCT (site CTAGATTCTAG),0.6
5,CAAGTGACTTGGGTTCTAACCTGTTGCCT (site CAAGTGACTAG),1.68
6,CAAGTGACTTGGGTTCTAACCTGTTGCCT (site TCCTATGCTTA),0.129
7,CAAGTGCCTTGGGTTCTAACCTGTTGCCT (site CAAGTGCCTAG),2.01
8,CAAGTGCCTTGGGTTCTAACCTGTTGCCT (site CAAGTTCCTAG),0.064
9,CAAGTTCCTTGGGTTCTAACCTGTTGCCT (site CAAGTGCCTAG),0.62
10,CAAGTTCCTTGGGTTCTAACCTGTTGCCT (site CAAGTTCCTAG),1.03
11,CAATACACTTGGGTTCTAACCTGTTGCCT (site CAATACACTAG),2.34
12,CAATACACTTGGGTTCTAACCTGTTGCCT (site CCACACACTAG),0.0608
13,CAATCGTCTTGGGTTCTAACCTGTTGCTT (site CAATCGTCTAA),0.629
14,CAATCGTCTTGGGTTCTAACCTGTTGCTT (site GAATCTTCTAA),0.0659
15,CAATCTGCTTGGGTTCTAACCTGTTGCCT (site CAATCTGCTAG),0.233
16,CAATCTGCTTGGGTTCTAACCTGTTGCCT (site CACTCTGCTAG),0.0111
17,CAATCTGCTTGGGTTCTAACCTGTTGCCT (site CAGTCTGCTAG),0.101
18,CAATCTGCTTGGGTTCTAACCTGTTGCCT (site CATTCTGCTAG),0.0288
19,CAATGCTCTTGGGTTCTAACCTGTTGCCT (site CAATGCTCTAG),1.84
20,CAATGCTCTTGGGTTCTAACCTGTTGCCT (site CAGTGCTCTTG),0.113
21,CAATGGACTTGGGTTCTAACCTGTTGCCT (site CAATGGACTAG),1.12
22,CAATGGACTTGGGTTCTAACCTGTTGCCT (site CACTGGACTAG),0.0334

row,Sequence,recombinant barcode read abundance (log10)
1,CAATGGACTTGGGTTCTAACCTGTTGCCT (site CAGTGGACTAG),0.106
2,CAATGGACTTGGGTTCTAACCTGTTGCCT (site CATTGGACTAG),0.103
3,CAATGGTCTTGGGTTCTAACCTGTTGCTT (site CAATGGTCTAA),1.86
4,CAATGGTCTTGGGTTCTAACCTGTTGCTT (site CAATGGTCTAC),1.64
5,CAATGGTCTTGGGTTCTAACCTGTTGCTT (site CAATGGTCTAG),1.07
6,CAATGGTCTTGGGTTCTAACCTGTTGCTT (site CAATGGTCTAT),1.14
7,CAATTTCCTTGGGTTCTAACCTGTTGCAT (site CAATTTCCTAT),0.322
8,CAATTTCCTTGGGTTCTAACCTGTTGCAT (site GCCAGCTCTCA),0.0829
9,CACACGACTTGGGTTCTAACCTGTTGCTT (site CACACGACTAA),0.496
10,CACACGACTTGGGTTCTAACCTGTTGCTT (site TGGTTACCTCC),0.0367
11,CACACGCCTTGGGTTCTAACCTGTTGCCT (site CACACGCCTAG),0.278
12,CACACGCCTTGGGTTCTAACCTGTTGCCT (site CTCACGCCTAA),0.0913
13,CACATATCTTGGGTTCTAACCTGTTGCAT (site CACATATCTAT),1.49
14,CACATATCTTGGGTTCTAACCTGTTGCAT (site CACATCTCTAG),0.123
15,CACCAATCTTGGGTTCTAACCTGTTGCCT (site CACCAATCTAG),0.525
16,CACCAATCTTGGGTTCTAACCTGTTGCCT (site CACGCATCTAG),0.269
17,CACCAGCCTTGGGTTCTAACCTGTTGCAT (site AGGTCCGCTTA),0.167
18,CACCAGCCTTGGGTTCTAACCTGTTGCAT (site CACCAGCCTAT),1.98
19,CACCCCTCTTGGGTTCTAACCTGTTGCCG (site ATGAGGACTAC),0.0851
20,CACCCCTCTTGGGTTCTAACCTGTTGCCG (site CACCCCTCTCG),2.44
21,CACCGTCCTTGGGTTCTAACCTGTTGCAT (site CACCGTCCTAC),0.0846
22,CACCGTCCTTGGGTTCTAACCTGTTGCAT (site CACCGTCCTAT),1.61

row,Sequence,recombinant barcode read abundance (log10)
1,CACCTGTCTTGGGTTCTAACCTGTTGCCG (site CACCTGACTCG),0.151
2,CACCTGTCTTGGGTTCTAACCTGTTGCCG (site CACCTGTCTCG),1.94
3,CACGCGTCTTGGGTTCTAACCTGTTGCTG (site CACGCGTCTCA),0.746
4,CACGCGTCTTGGGTTCTAACCTGTTGCTG (site CACGCTTCTTA),0.0288
5,CACGCTCCTTGGGTTCTAACCTGTTGCGT (site ACTTGAGCTCT),0.119
6,CACGCTCCTTGGGTTCTAACCTGTTGCGT (site CACGCTCCTAC),0.656
7,CACGGGTCTTGGGTTCTAACCTGTTGCTT (site CACGGGTCTAA),2.32
8,CACGGGTCTTGGGTTCTAACCTGTTGCTT (site CTCCGGTCTAA),0.209
9,CACTACCCTTGGGTTCTAACCTGTTGCTT (site AGGCCGTCTCC),0.0811
10,CACTACCCTTGGGTTCTAACCTGTTGCTT (site CACTACCCTAA),1.24
11,CACTATCCTTGGGTTCTAACCTGTTGCGG (site CACTAGCCTCC),0.0909
12,CACTATCCTTGGGTTCTAACCTGTTGCGG (site CACTATCCTCC),1.5
13,CACTCACCTTGGGTTCTAACCTGTTGCGG (site CACTCACCTCC),1.38
14,CACTCACCTTGGGTTCTAACCTGTTGCGG (site CACTTAGCTCC),0.0338
15,CACTCTCCTTGGGTTCTAACCTGTTGCCT (site CACTCTCCTAG),0.226
16,CACTCTCCTTGGGTTCTAACCTGTTGCCT (site CACTCTCCTAT),0.00896
17,CACTTAGCTTGGGTTCTAACCTGTTGCGG (site CACTCACCTCC),0.0176
18,CACTTAGCTTGGGTTCTAACCTGTTGCGG (site CACTTAGCTCC),1.28
19,CACTTCCCTTGGGTTCTAACCTGTTGCCT (site CACTTCCCTAA),0.191
20,CACTTCCCTTGGGTTCTAACCTGTTGCCT (site CACTTCCCTAC),0.0709
21,CACTTCCCTTGGGTTCTAACCTGTTGCCT (site CACTTCCCTAG),0.924
22,CACTTCCCTTGGGTTCTAACCTGTTGCCT (site CACTTCCCTAT),0.0298

row,Sequence,recombinant barcode read abundance (log10)
1,CACTTCCCTTGGGTTCTAACCTGTTGCTT (site CACTTCCCTAA),1.04
2,CACTTCCCTTGGGTTCTAACCTGTTGCTT (site CACTTCCCTAC),0.0814
3,CACTTCCCTTGGGTTCTAACCTGTTGCTT (site CACTTCCCTAG),0.442
4,CACTTCCCTTGGGTTCTAACCTGTTGCTT (site CACTTCCCTAT),0.443
5,CACTTGTCTTGGGTTCTAACCTGTTGCCA (site CACTTGTCTTG),0.0547
6,CACTTGTCTTGGGTTCTAACCTGTTGCCA (site TATTTGTCTTG),0.0129
7,CAGAAGTCTTGGGTTCTAACCTGTTGCTT (site ACACGTGCTTC),0.0609
8,CAGAAGTCTTGGGTTCTAACCTGTTGCTT (site CAGAAGTCTAA),1.44
9,CAGAATACTTGGGTTCTAACCTGTTGCGT (site CAAAATTCTAC),0.215
10,CAGAATACTTGGGTTCTAACCTGTTGCGT (site CAGAATACTAC),2.24
11,CAGAGAGCTTGGGTTCTAACCTGTTGCCT (site CAGAGAGCTAG),1.2
12,CAGAGAGCTTGGGTTCTAACCTGTTGCCT (site CCGAGAGCTAG),0.0663
13,CAGAGAGCTTGGGTTCTAACCTGTTGCCT (site CGGAGAGCTAG),0.0978
14,CAGAGAGCTTGGGTTCTAACCTGTTGCCT (site CTGAGAGCTAG),0.132
15,CAGAGCTCTTGGGTTCTAACCTGTTGCCT (site CAGAGCTCTAG),1.43
16,CAGAGCTCTTGGGTTCTAACCTGTTGCCT (site CAGAGGTCTAG),0.309
17,CAGAGTCCTTGGGTTCTAACCTGTTGCCT (site CAGAGTCCTAG),1.26
18,CAGAGTCCTTGGGTTCTAACCTGTTGCCT (site CAGAGTCCTAT),0.3
19,CAGATCCCTTGGGTTCTAACCTGTTGCCT (site CAGATCCCTAG),1.91
20,CAGATCCCTTGGGTTCTAACCTGTTGCCT (site CCGATCCCTAG),0.0889
